Experimental data as given in patent US11479802B2, “Assays for screening activity of modulators of members of the hydroxy steroid (17-beta) dehydrogenase (HSD17B) family” (Regeneron Pharmaceuticals, Inc., priority 2017, dated 2022).

Columns and labels:
Type in all cases: biochemical
[1] = biological target: T1, HSD17B11 (Homo sapiens, UniProt Q8NBQ5); assay: Steroid substrate panel against HSD17B family member B11; details: substrate at 50 μM; estradiol set as 100%
T1 construct: made in house
T1 sequence (Q8NBQ5 20-300): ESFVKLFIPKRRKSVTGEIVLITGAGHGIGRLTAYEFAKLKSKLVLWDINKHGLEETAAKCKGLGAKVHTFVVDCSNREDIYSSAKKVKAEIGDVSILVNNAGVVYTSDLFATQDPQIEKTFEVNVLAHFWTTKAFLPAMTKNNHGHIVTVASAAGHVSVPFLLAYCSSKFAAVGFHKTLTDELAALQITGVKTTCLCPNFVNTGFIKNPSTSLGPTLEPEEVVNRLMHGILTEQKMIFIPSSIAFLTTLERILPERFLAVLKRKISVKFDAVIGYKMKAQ
Description: (§1) To understand the functional consequences of premature truncation of the HSD17B13 protein due to rs72613567:TA (the associated variant, rs72613567, is an insertion of an adenine adjacent to the donor splice site of exon six (TA allele)), the enzymatic activity of isoforms A and D was evaluated in vitro using recombinant protein and nicotinamide […] dinucleotide as cofactor. Reactions were performed in a final volume of 40 μl of assay buffer (0.2 M Tris-HCl, pH 7.5) which contained 500 μM NAD^+, 5 μM bioactive lipid or 50 μM steroid (all in a final concentration of 5% DMSO), and 100 ng of recombinant human HSD17B13. Reactions were incubated for 3 hours, at 23° C., after which an equal volume detection reagent was added. Following a 1 hour incubation at 23° C., the relative light units (RLUs) were measured on an Envision Plate Reader (Perkin Elmer). Raw RLU values were normalized as percent of control (50 μM estradiol) following subtraction of negative control (5% DMSO) using the following formula: Percent of control (POC)=100×(Sample (RLU)−Negative CTRLaverage)/(Positive CTRLaverage−Negative CTRLaverage).
(§2) In order to determine specificity of compounds with inhibitory activity against HSD17B13, assays for selected members of the HSD17B family which includes HSD17B1-HSD17B14 were established. As a first step, selected family members were expressed, purified and tested for activity a using a steroid substrate panel. Substrates from the steroid panel were tested at 50 μM, using the standard assay protocol. Activity against the substrates for each HSD17B family member were normalized to Percent of Control (POC). The control, estradiol, was set as 100%.

[2] = biological target: T2, HSD17B5 (Homo sapiens, UniProt P42330); assay: Steroid substrate panel against HSD17B family member B5; details: substrate at 50 μM; estradiol set as 100%
T2 construct: made in house
T2 sequence (P42330 1-323): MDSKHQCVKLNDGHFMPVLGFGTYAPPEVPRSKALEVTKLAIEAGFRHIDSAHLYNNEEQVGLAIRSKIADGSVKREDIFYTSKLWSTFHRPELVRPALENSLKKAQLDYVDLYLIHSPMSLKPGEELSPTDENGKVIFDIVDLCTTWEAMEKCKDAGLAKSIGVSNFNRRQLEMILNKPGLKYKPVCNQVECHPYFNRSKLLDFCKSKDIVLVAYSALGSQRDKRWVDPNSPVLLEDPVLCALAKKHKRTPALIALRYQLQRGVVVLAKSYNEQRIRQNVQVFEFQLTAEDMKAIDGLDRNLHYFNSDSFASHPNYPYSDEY
Description: as §1, §2

[3] = biological target: T3, HSD17B4 (Homo sapiens, UniProt P51659); assay: Steroid substrate panel against HSD17B family member B4; details: substrate at 50 μM; estradiol set as 100%
T3 construct: made in house
T3 sequence (P51659 1-736): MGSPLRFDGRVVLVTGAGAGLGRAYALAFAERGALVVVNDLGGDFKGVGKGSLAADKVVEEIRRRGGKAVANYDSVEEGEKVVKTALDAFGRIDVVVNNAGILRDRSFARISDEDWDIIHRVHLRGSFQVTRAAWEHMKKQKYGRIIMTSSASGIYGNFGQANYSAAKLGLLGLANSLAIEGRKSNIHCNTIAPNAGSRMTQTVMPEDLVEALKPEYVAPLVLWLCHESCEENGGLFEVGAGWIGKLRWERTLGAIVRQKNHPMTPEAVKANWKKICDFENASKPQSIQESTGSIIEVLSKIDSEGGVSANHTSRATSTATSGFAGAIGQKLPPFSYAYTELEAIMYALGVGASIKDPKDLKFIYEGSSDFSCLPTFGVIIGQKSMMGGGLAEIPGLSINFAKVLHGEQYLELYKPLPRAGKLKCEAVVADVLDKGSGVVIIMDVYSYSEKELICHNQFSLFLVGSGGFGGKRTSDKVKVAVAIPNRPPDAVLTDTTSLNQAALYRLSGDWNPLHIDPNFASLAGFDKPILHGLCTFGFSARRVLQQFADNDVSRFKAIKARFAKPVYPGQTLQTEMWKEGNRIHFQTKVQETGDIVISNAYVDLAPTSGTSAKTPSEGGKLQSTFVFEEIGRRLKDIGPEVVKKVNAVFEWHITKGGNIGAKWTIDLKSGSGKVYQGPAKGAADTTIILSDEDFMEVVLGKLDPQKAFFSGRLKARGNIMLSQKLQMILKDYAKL
Description: as §1, §2

[4] = biological target: T4, HSD17B10 (Homo sapiens, UniProt Q99714); assay: Steroid substrate panel against HSD17B family member B10; details: substrate at 50 μM; estradiol set as 100%
T4 construct: made in house
T4 sequence (Q99714 1-261): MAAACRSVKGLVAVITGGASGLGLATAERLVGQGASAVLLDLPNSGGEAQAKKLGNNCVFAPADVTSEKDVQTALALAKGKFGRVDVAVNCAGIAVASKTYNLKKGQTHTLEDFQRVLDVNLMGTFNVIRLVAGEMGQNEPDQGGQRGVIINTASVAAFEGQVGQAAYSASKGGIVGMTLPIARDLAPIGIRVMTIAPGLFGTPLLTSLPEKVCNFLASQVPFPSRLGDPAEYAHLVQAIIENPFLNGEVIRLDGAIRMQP
Description: as §1, §2

[5] = biological target: T5, human HSD17B13 (Homo sapiens, UniProt Q7Z5P4); assay: Substrate screening of steroid and bioactive lipid libraries against purified recombinant HSD17B13 (NADH-linked luciferase assay); details: Steroid Library, 50 μM steroid; for HSD17B13 Enzymatic Activity Relative Light Units: 500 μM NAD+, 100 ng enzyme, 3 hours at 23° C.; for HSD17B13 Enzymatic Activity Percent Estradiol Control: normalized to 50 μM estradiol after subtraction of 5% DMSO
T5 sequence (Q7Z5P4 20-300): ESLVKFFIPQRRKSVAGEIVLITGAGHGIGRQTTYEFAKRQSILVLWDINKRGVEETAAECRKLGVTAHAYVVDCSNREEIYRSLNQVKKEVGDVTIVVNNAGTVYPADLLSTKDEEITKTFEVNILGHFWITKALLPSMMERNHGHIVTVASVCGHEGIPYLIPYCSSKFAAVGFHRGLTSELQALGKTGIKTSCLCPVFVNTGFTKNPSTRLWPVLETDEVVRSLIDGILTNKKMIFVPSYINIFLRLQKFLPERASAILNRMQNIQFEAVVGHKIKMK
How it was run: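 Substrates (bioactive lipids 5 μM, steroids 50 μM; 5% DMSO) tested with 500 μM NAD+ and 100 ng recombinant human HSD17B13 in 0.2 M Tris-HCl pH 7.5, 3 h, 23° C. Luminescent NADH detection followed 1 h later; RLU normalized to estradiol (50 μM, 100%) and DMSO (0%) controls.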

[6] = biological target: T6, HSD17B2 (Homo sapiens, UniProt P37059); assay: Steroid substrate panel against HSD17B family member B2; details: substrate at 50 μM; estradiol set as 100%
T6 construct: made in house
T6 sequence (P37059 1-387): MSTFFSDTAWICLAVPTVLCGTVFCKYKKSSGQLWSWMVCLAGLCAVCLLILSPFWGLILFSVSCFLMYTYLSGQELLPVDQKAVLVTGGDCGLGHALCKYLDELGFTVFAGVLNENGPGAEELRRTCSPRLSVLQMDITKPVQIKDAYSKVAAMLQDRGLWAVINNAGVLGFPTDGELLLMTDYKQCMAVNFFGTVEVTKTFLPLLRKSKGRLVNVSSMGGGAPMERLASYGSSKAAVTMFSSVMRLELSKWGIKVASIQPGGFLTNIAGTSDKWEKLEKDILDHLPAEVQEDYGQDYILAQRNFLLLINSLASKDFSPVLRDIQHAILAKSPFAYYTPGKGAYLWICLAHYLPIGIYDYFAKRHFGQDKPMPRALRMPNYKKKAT
Description: as §1, §2

[7] = biological target: T7, HSD17B1 (Homo sapiens, UniProt P14061); assay: Steroid substrate panel against HSD17B family member B1; details: substrate at 50 μM; estradiol set as 100%
T7 construct: made in house
T7 sequence (P14061 1-328): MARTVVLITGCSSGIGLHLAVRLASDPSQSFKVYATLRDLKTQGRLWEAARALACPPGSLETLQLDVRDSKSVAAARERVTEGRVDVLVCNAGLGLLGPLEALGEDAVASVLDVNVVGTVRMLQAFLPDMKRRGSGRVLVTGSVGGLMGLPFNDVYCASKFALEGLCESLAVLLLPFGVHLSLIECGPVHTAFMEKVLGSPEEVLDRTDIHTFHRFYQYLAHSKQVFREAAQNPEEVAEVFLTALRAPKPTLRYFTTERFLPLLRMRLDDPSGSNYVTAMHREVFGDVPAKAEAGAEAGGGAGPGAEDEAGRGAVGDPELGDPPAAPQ
Description: as §1, §2

| SMILES | Percent of Control (POC), B11 [1] | Percent of Control (POC), B5 [2] | Percent of Control (POC), B4 [3] | Percent of Control (POC), B10 [4] | HSD17B13 Enzymatic Activity Relative Light Units [5] | HSD17B13 Enzymatic Activity Percent Estradiol Control [5] | Percent of Control (POC), B2 [6] | Percent of Control (POC), B1 [7] |
| --- | --- | --- | --- | --- | --- | --- | --- | --- |
| C[C@]12CC[C@@H](O)C[C@@H]1CC[C@@H]1[C@@H]2C(=O)C[C@]2(C)C(=O)CC[C@@H]12 [11-oxo-androsterone] | 0.0% | 0% | 0.4% | 31.4% | 196640 RLU | 0.63% | 0.0% | 0.0% |
| C[C@]12CC[C@@H](O)C[C@H]1CC[C@@H]1[C@@H]2C(=O)C[C@]2(C)C(=O)CC[C@@H]12 [11-oxo-etiocholanolone] | 0.0% | 13% | 0.2% | 30.7% | 195960 RLU | 0.62% | 0.0% | −0.1% |
| C[C@]12CC[C@@H](O)C[C@@H]1CC[C@@H]1[C@@H]2CC[C@]2(C)C(=O)[C@H](O)C[C@@H]12 [16alpha-Hydroxyandrosterone] | 0.0% | 45% | 0.5% | 69.7% | 221840 RLU | 1.07% | 1.5% | 0.0% |
| C[C@]12CC[C@@H](O)C[C@@H]1CC[C@@H]1[C@@H]2CC[C@]2(C)C(=O)CC[C@@H]12 [Androsterone] | 0.0% | 0% | 0.3% | 91.0% | 158120 RLU | −0.04% | 1.0% | 0.0% |
| CC(=O)OCC(=O)[C@H]1CC[C@H]2[C@@H]3CCC4=CC(=O)CC[C@]4(C)[C@H]3[C@@H](O)C[C@]12C [Corticosterone 21-acetate] | 32.2% | 0% | 0.1% | 0.3% | 190160 RLU | 0.52% | 0.0% | −0.1% |
| C[C@]12CCC(=O)C[C@@H]1CC[C@@H]1[C@@H]2CC[C@]2(C)[C@@H](O)CC[C@@H]12 [DHT, dihydroxy testosterone (DHT)] | 12.7% | 0% | 37.1% | 3.3% | 1886360 RLU | 30.14% | 61.2% | 0.4% |
